Measurements as given in patent US4851221A, “Liquid calcium supplementation from readily soluble mixtures of calcium compound and citric acid” (Mission Pharmacal Company, priority 1986, dated 1989).
Where a name gives a salt, the structure may show the parent alone.

Experiments:
[1] = oral; comparable amount; cited from earlier work
[2] = indirect method of oral calcium loading: increment in urinary calcium; format: in vivo; settings: second two hours after oral 500 mg calcium; 10 normal subjects; mean ± SD; ** p < 0.01 vs tricalcium dicitrate (pre-mixes 1.5 and 1.25)
Protocol: (§1) The pre-mixes yielded greater absorbability of calcium than tricalcium dicitrate. […] The calcium absorption was also measured more directly from the recovery of radiocalcium after taking labeled calcium preparations in 6 normal subjects.
This indirect measure of calcium absorption was greatest for the pre-mix with a calcium/citrate molar ratio of 1.25 than for other pre-mixes.

[3] = blood pressure in essential hypertension; format: in vivo; settings: 800 mg calcium/day
[4] = during treatment; cited from earlier work
[5] = radiocalcium absorption (fecal recovery of radioactive calcium); format: in vivo; settings: 6 normal subjects; oral radiocalcium-labeled; mean ± SD; * p < 0.05 vs tricalcium dicitrate (pre-mix 1.25)
Protocol: as §1

[6] = in vivo; cited from earlier work
[7] = cited from earlier work
[8] = cited from earlier work; remark: listed apart in the source
[9] = patients with absorptive hypercalciuria; cited from earlier work

## O=C(O)CC(O)(CC(=O)O)C(=O)O [Tricalcium Dicitrate, tricalcium dicitrate]
[1]
  calcium absorbability versus calcium carbonate: more calcium was absorbable from calcium citrate than from a comparable amount of calcium carbonate
[2]
  Increment in Urinary Calcium: 0.087 ± 0.087 mg calcium/100 ml glomerular f
1.5-2.75 g calcium/day, preliminary data
  control of hyperphosphatemia: satisfactory control of hyperphosphatemia could be achieved in the majority of patients
After 8 weeks of treatment, p< 0.05, 1.5-2.75 g calcium/day
  serum aluminum concentration after treatment: 79 ng/mL
Before treatment
  serum aluminum concentration before treatment: 127 ng/mL
[3]
  effect on blood pressure: Neither calcium carbonate nor tricalcium dicitrate (800 mg calcium/day) was effective in lowering blood pressure
[4]
  urinary citrate change: Urinary citrate rose significantly during calcium citrate treatment
[5]
  Calcium Absorption: 19.1 ± 6.9%

## [OH][Al]([OH])[OH] [aluminum hydroxide]
[6]
  aluminum accumulation / osteomalacia: aluminum accumulation in the body causing a vitamin D resistant osteomalacia

## O=C(O)O [calcium carbonate]
[7]; 3-20 g calcium/day, Clarkson et al.
  absorption of ingested phosphate: prevent the absorption of ingested phosphate
[3]
  effect on blood pressure: Neither calcium carbonate nor tricalcium dicitrate (800 mg calcium/day) was effective in lowering blood pressure
[4]
  urinary citrate change: not during calcium carbonate therapy
[8]; Christiansen et al., postmenopausal women
  prevention of vertebral bone loss: ineffective in preventing vertebral bone loss

## O=C(O)CC(O)(CC(=O)O)C(=O)O [calcium citrate]
[7]; 2 g calcium/day, patients with renal failure, McDonald et al.
  serum phosphate concentration: effective in restoring normal serum phosphate concentration

## O=C(O)[C@H](O)[C@@H](O)[C@H](O)[C@H](O)CO [calcium gluconate]
[9]
  urinary calcium / activity product ratio (calcium oxalate saturation): increased urinary calcium, leading to an increased activity product ratio

## CC#C[C@]1(O)CC[C@H]2[C@@H]3CCc4cc(O)ccc4[C@H]3CC[C@@]21C [estrogen]
[8]; Recker et al., osteoporosis prone postmenopausal women
  prevention of further bone losses: may be prevented by estrogen treatment
